Reference: the supplement of paper PMC10307832

Experiments:
Assay in all cases: relative viability (nuclei count vs DMSO), 5 days (fraction); higher = more cells survive
NCI-H1944 = test system: NCI-H1944
Summary of the method: (§1)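 Lung cancer cell lines in 1536-well plates were dosed by pin tool the day after seeding, either with one drug alone or with a fixed anchor-drug dose plus five library-drug doses (not always all listed) in √10 steps. After 5 days, cells were fixed and their nuclei stained in one step (final 0.05% Triton X-100, 1% formaldehyde, 1 ug/ml Hoechst), then counted on 4× images. Relative viability is the nuclei count in treated wells divided by that in vehicle wells. Values are medians of duplicate plates.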

NCI-H1395 = test system: NCI-H1395
Summary of the method: as §1

NCI-H460 = test system: NCI-H460
Summary of the method: as §1

UMC-11 = test system: UMC-11
Summary of the method: as §1

LOU-NH91 = test system: LOU-NH91
Summary of the method: as §1

RERF-LC-KJ = test system: RERF-LC-KJ
Summary of the method: as §1

NCI-H1755 = test system: NCI-H1755
Summary of the method: as §1

LU99A = test system: LU99A
Summary of the method: as §1

ABC-1 = test system: ABC-1
Summary of the method: as §1

NCI-H1793 = test system: NCI-H1793
Summary of the method: as §1

NCI-H1651 = test system: NCI-H1651
Summary of the method: as §1

Structure (SMILES): CC(=O)O[C@@]12CO[C@@H]1C[C@H](O)[C@@]1(C)C(=O)[C@H](O)C3=C(C)[C@@H](OC(=O)[C@H](O)[C@@H](NC(=O)OC(C)(C)C)c4ccccc4)C[C@@](O)([C@@H](OC(=O)c4ccccc4)[C@H]21)C3(C)C [Docetaxel] + COc1cc2c(Oc3ccc(NC(=O)C4(C(=O)Nc5ccc(F)cc5)CC4)cc3F)ccnc2cc1OCCCN1CCOCC1 [Foretinib] (partner 0.25 µM)
- relative viability (NCI-H1944; first compound 0.0002 µM): 0.85
- relative viability (NCI-H1944; first compound 0.000632 µM): 0.86
- relative viability (NCI-H1944; first compound 0.002 µM): 0.692
- relative viability (NCI-H1944; first compound 0.006325 µM): 0.31
- relative viability (NCI-H1944; first compound 0.02 µM): 0.151
- relative viability (NCI-H1395; first compound 0.0002 µM): 0.883
- relative viability (NCI-H1395; first compound 0.000632 µM): 0.874
- relative viability (NCI-H1395; first compound 0.002 µM): 0.904
- relative viability (NCI-H1395; first compound 0.006325 µM): 0.456
- relative viability (NCI-H1395; first compound 0.02 µM): 0.342
- relative viability (NCI-H460; first compound 0.0002 µM): 0.952
- relative viability (NCI-H460; first compound 0.000632 µM): 0.933
- relative viability (NCI-H460; first compound 0.002 µM): 0.184
- relative viability (NCI-H460; first compound 0.006325 µM): 0.0294
- relative viability (NCI-H460; first compound 0.02 µM): 0.022
- relative viability (UMC-11; first compound 0.0002 µM): 0.934
- relative viability (UMC-11; first compound 0.000632 µM): 0.943
- relative viability (UMC-11; first compound 0.002 µM): 0.307
- relative viability (UMC-11; first compound 0.006325 µM): 0.245
- relative viability (UMC-11; first compound 0.02 µM): 0.186
- relative viability (LOU-NH91; first compound 0.0002 µM): 0.936
- relative viability (LOU-NH91; first compound 0.000632 µM): 0.864
- relative viability (LOU-NH91; first compound 0.002 µM): 0.564
- relative viability (LOU-NH91; first compound 0.006325 µM): 0.334
- relative viability (LOU-NH91; first compound 0.02 µM): 0.284
- relative viability (RERF-LC-KJ; first compound 0.0002 µM): 0.882
- relative viability (RERF-LC-KJ; first compound 0.000632 µM): 0.898
- relative viability (RERF-LC-KJ; first compound 0.002 µM): 0.402
- relative viability (RERF-LC-KJ; first compound 0.006325 µM): 0.2
- relative viability (RERF-LC-KJ; first compound 0.02 µM): 0.203
- relative viability (NCI-H1755; first compound 0.0002 µM): 0.901
- relative viability (NCI-H1755; first compound 0.000632 µM): 0.88
- relative viability (NCI-H1755; first compound 0.002 µM): 0.564
- relative viability (NCI-H1755; first compound 0.006325 µM): 0.351
- relative viability (NCI-H1755; first compound 0.02 µM): 0.373
- relative viability (LU99A; first compound 0.0002 µM): 0.718
- relative viability (LU99A; first compound 0.000632 µM): 0.794
- relative viability (LU99A; first compound 0.002 µM): 0.486
- relative viability (LU99A; first compound 0.006325 µM): 0.393
- relative viability (LU99A; first compound 0.02 µM): 0.259
- relative viability (ABC-1; first compound 0.0002 µM): 1.16
- relative viability (ABC-1; first compound 0.000632 µM): 1.18
- relative viability (ABC-1; first compound 0.002 µM): 0.333
- relative viability (ABC-1; first compound 0.006325 µM): 0.351
- relative viability (ABC-1; first compound 0.02 µM): 0.216
- relative viability (NCI-H1793; first compound 0.0002 µM): 0.592
- relative viability (NCI-H1793; first compound 0.000632 µM): 0.493
- relative viability (NCI-H1793; first compound 0.002 µM): 0.391
- relative viability (NCI-H1793; first compound 0.006325 µM): 0.204
- relative viability (NCI-H1793; first compound 0.02 µM): 0.186
- relative viability (NCI-H1651; first compound 0.0002 µM): 0.795
- relative viability (NCI-H1651; first compound 0.000632 µM): 0.789
- relative viability (NCI-H1651; first compound 0.002 µM): 0.238
- relative viability (NCI-H1651; first compound 0.006325 µM): 0.128
